Read-outs that look alike come from different tables or passages of the source.
Tests used:
[1] = biological target: T1, ICE (Homo sapiens, UniProt P29466); assay: Enzyme assay with UV-visible substrate (visible ICE assay, Succinyl-Tyr-Val-Ala-Asp-pNitroanilide); format: biochemical; conditions: Table 5
T1 sequence (P29466 120-297 limits assumed): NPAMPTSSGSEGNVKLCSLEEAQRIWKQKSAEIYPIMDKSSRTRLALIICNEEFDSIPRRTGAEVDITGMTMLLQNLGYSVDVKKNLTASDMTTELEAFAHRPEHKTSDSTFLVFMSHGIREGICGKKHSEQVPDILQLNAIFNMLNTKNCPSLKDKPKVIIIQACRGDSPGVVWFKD
T1 sequence (P29466 317-404 limits assumed): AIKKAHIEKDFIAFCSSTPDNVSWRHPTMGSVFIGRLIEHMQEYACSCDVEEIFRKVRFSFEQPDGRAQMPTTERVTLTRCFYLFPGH
In short: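 Colorimetric caspase-1 activity: 15 min enzyme-inhibitor preincubation (RT), then Suc-Tyr-Val-Ala-Asp-pNA; 405-603 nm kinetics, 20 min, 37° C. Ki from rate fitting.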

[2] = system: IL-1β, human whole blood; assay: Whole blood assay for IL-1β production; format: cell-based; conditions: * = values obtained upon reassay, read-out: Whole human blood IC50
Description: The whole blood assay is a simple method for measuring the production of IL-1b (or other cytokines) and the activity of potential inhibitors. The complexity of this assay system, with its full complement of lymphoid and inflammatory cell types, spectrum of plasma proteins and red blood cells is an ideal in vitro representation of human in vivo physiologic conditions.
Pyrogen-free syringes (˜30 cc) Pyrogen-free sterile vacuum tubes containing lyophilized Na2EDTA (4.5 mg/10 ml tube) Human whole blood sample (˜30-50 cc) 1.5 ml eppendorf tubes Test compound stock solutions (˜25 mM in DMSO or other solvent) Endotoxin-free sodium chloride solution (0.9%) and HBSS Lipopolysaccharide (Sigma; Cat. # L-3012) stock solution at 1 mg/ml in HBSS
IL-1β ELISA Kit (R & D Systems; Cat # DLB50)
TNFα ELISA Kit (R & D Systems; Cat # DTA50)
Whole Blood Assay Experimental Procedure:
Set incubator or water bath at 30° C. Aliquot 0.25 ml of blood into 1.5 ml eppendorf tubes. Note: be sure to invert the whole blood sample tubes after every two aliquots. Differences in replicates may result if the cells sediment and are not uniformly suspended. Use of a positive displacement pipette will also minimize differences between replicate aliquots.
Prepare drug dilutions in sterile pyrogen-free saline by serial dilution. A dilution series which brackets the apparent Ki for a test compound determined in an ICE inhibition assay is generally used for the primary compound screen.
Add 25 μl test compound dilution or vehicle control and gently mix the sample. Then add 5.0 μl LPS solution (250 ng/ml stocked prepared fresh: 5.0 ng/ml final concentration LPS), and mix again. Incubate the tubes at 30° C. in a water bath for 16-18 hr with occasional mixing. Alternatively, the tubes can be placed in a rotator set at 4 rpm for the same incubation period. This assay should be set up in duplicate or triplicate with the following controls: negative control—no LPS; positive control—no test inhibitor; vehicle control—the highest concentration of DMSO or compound solvent used in the experiment. Additional saline is added to all control tubes to normalize volumes for both control and experimental whole blood test samples
After the incubation period, whole blood samples are centrifuged for 10 minutes at ˜2000 rpm in the microfuge, plasma is transferred to a fresh microfuge tube and centrifuged at 1000×g to pellet residual platelets if necessary. Plasma samples may be stored frozen at −70° C. prior to assay for cytokine levels by ELISA.
We have used R & D Systems (614 McKinley Place N.E. Minneapolis, Minn. 55413) Quantikine kits for measurement of IL-1β and TNF-α. The assays are performed according to the manufacturer's directions.
We have observed IL-1β levels of ˜1-5 ng/ml in positive controls among a range of individuals. A 1:200 dilution of plasma for all samples has been sufficient in our experiments for ELISA results to fall on the linear range of the ELISA standard curves. It may be necessary to optimize standard dilutions if you observe differences in the whole blood assay. Nerad, J. L. et al., J. Leukocyte Biol., 52, pp. 687-692 (1992).

[3] = system: IL-1β, human peripheral blood mononuclear cells (PBMC); assay: PBMC cell assay: IL-1β assay with human PBMC or enriched adherent mononuclear cells, LPS-stimulated; format: cell-based; conditions: * = values obtained upon reassay
In short: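 Buffy-coat human PBMC at 6×10^6 cells/ml, or adherent monocytes enriched by 1 h adherence (2.5−3.0×10^5 cells/well), are given 5–6 compound dilutions bracketing the ICE Ki (final DMSO 0.1%) plus LPS at a final 5 ng/ml. They are incubated 16–18 hr at 37 °C, 5% CO2, and supernatant mature IL-1β is measured by ELISA, with duplicate cultures and duplicate ELISAs.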

Row | Compound | Ki [1] | IC50 ([2]; Homo sapiens) | IC50 ([3]; Homo sapiens, PBMC) | IC50 [3] | IC50 [2]
1 | O=C[C@H](CC(=O)O)NC(=O)[C@@H]1CCCN2C(=O)CC[C@H](NC(=O)c3ccc4ccccc4c3)C(=O)N12 [Compound 407] | 0.4 nM | 1700 nM | 540 nM |  | 
2 | O=C[C@H](CC(=O)O)NC(=O)[C@@H]1CCCN2C(=O)CC[C@H](NC(=O)c3ccc4ccccc4n3)C(=O)N12 [Compound 411] | 0.9 nM | 1900 nM | 540 nM |  | 
3 | CCn1nc(C)cc1C(=O)N[C@H]1CCC(=O)N2CCC[C@@H](C(=O)N[C@H](C=O)CC(=O)O)N2C1=O [Compound 422] | 50 nM | 1200 nM | 2200 nM |  | 
4 | Cc1cc(C(=O)N[C@H]2CCC(=O)N3CCC[C@@H](C(=O)N[C@H](C=O)CC(=O)O)N3C2=O)no1 [Compound 424] | 45 nM | 4000 nM | 2500 nM |  | 
5 | O=C[C@H](CC(=O)O)NC(=O)[C@@H]1CCCN2C(=O)CC[C@H](NC(=O)c3ccc4cc(O)ccc4c3)C(=O)N12 [Compound 425] | 0.8 nM | 650 nM | 650 nM | 700 nM | 
6 | Nc1ccc(C(=O)N[C@H]2CCC(=O)N3CCC[C@@H](C(=O)N[C@H](C=O)CC(=O)O)N3C2=O)cc1 [Compound 431] | 8 nM | 8000 nM | > 8000 nM |  | 
7 | O=C[C@H](CC(=O)O)NC(=O)[C@@H]1CCCN2C(=O)CC[C@H](NC(=O)c3ccc4nn[nH]c4c3)C(=O)N12 [Compound 432] | 1.6 nM | 2000 nM | 560 nM |  | 
8 | Cn1c(C(=O)N[C@H]2CCC(=O)N3CCC[C@@H](C(=O)N[C@H](C=O)CC(=O)O)N3C2=O)cc2ccccc21 [Compound 433] | 2.9 nM | 1100 nM | 1000 nM | 1100 nM | 
9 | COc1cc(C(=O)N[C@H]2CCC(=O)N3CCC[C@@H](C(=O)N[C@H](C=O)CC(=O)O)N3C2=O)nc2ccccc12 [Compound 437] | 12 nM | 5000 nM | 1800 nM |  | 
10 | O=C[C@H](CC(=O)O)NC(=O)[C@@H]1CCCN2C(=O)CC[C@H](NC(=O)c3cccc4cccnc34)C(=O)N12 [Compound 439] | 3.7 nM | 3200 nM | 2800 nM |  | 3400 nM
11 | Nc1cc2ccccc2cc1C(=O)N[C@H]1CCC(=O)N2CCC[C@@H](C(=O)N[C@H](C=O)CC(=O)O)N2C1=O [Compound 440] | 2.3 nM | 2000 nM | 5000 nM |  | 
12 | CN(C)c1ccc(C(=O)N[C@H]2CCC(=O)N3CCC[C@@H](C(=O)N[C@H](C=O)CC(=O)O)N3C2=O)c2ccccc12 [Compound 441] | 1 nM | 4500 nM | 2500 nM |  | 
13 | O=C[C@H](CC(=O)O)NC(=O)[C@@H]1CCCN2C(=O)CC[C@H](NC(=O)c3ccc(Oc4ccccc4)cc3)C(=O)N12 [Compound 443] | 3.6 nM | 1500 nM | 2800 nM |  | 
14 | O=C[C@H](CC(=O)O)NC(=O)[C@@H]1CCCN2C(=O)CC[C@H](NC(=O)c3c(Cl)cccc3Cl)C(=O)N12 [Compound 444] | 15 nM | 3500 nM | 3500 nM |  | 
15 | CS(=O)(=O)Nc1ccc(C(=O)N[C@H]2CCC(=O)N3CCC[C@@H](C(=O)N[C@H](C=O)CC(=O)O)N3C2=O)cc1 [Compound 447] | 5.8 nM | 1500 nM | 2500 nM |  | 
16 | O=C[C@H](CC(=O)O)NC(=O)[C@@H]1CCCN2C(=O)CC[C@H](NC(=O)c3cc4ccccc4s3)C(=O)N12 [Compound 453] | 0.65 nM | 1900 nM | 1300 nM |  | 1600 nM

Row | Compound | Ki [1] | IC50 ([2]; Homo sapiens) | IC50 ([3]; Homo sapiens, PBMC) | IC50 [3] | IC50 [2]
17 | O=C[C@H](CC(=O)O)NC(=O)[C@@H]1CCCN2C(=O)CC[C@H](NC(=O)c3ccc(OC(=O)c4ccc(O)cc4)cc3)C(=O)N12 [Compound 457] | 6.2 nM | 3500 nM | 2000 nM |  | 
18 | CS(=O)(=O)c1ccc(C(=O)N[C@H]2CCC(=O)N3CCC[C@@H](C(=O)N[C@H](C=O)CC(=O)O)N3C2=O)cc1 [Compound 460] | 115 nM | 2400 nM | 400 nM |  | 
19 | Cc1c(Cl)cccc1C(=O)N[C@H]1CCC(=O)N2CCC[C@@H](C(=O)N[C@H](C=O)CC(=O)O)N2C1=O [Compound 465] | 3 nM | 800 nM | 1000 nM |  | 
20 | Cc1ccc(Cl)cc1C(=O)N[C@H]1CCC(=O)N2CCC[C@@H](C(=O)N[C@H](C=O)CC(=O)O)N2C1=O [Compound 466] | 0.8 nM | 600 nM | 1400 nM |  | 
21 | Cc1nc(-c2ccc(C(F)(F)F)cc2)sc1C(=O)N[C@H]1CCC(=O)N2CCC[C@@H](C(=O)N[C@H](C=O)CC(=O)O)N2C1=O [Compound 468] | 4.5 nM | 2500 nM | 850 nM |  | 
22 | Cc1cc2c(cc1C(=O)N[C@H]1CCC(=O)N3CCC[C@@H](C(=O)N[C@H](C=O)CC(=O)O)N3C1=O)OCO2 [Compound 473] | 1 nM | 400 nM | 1000 nM |  | 450 nM
23 | Cc1c(O)cccc1C(=O)N[C@H]1CCC(=O)N2CCC[C@@H](C(=O)N[C@H](C=O)CC(=O)O)N2C1=O [Compound 476] | 7 nM | 2500 nM | 1600 nM |  | 
24 | Nc1c(Cl)cc(C(=O)N[C@H]2CCC(=O)N3CCC[C@@H](C(=O)N[C@H](C=O)CC(=O)O)N3C2=O)cc1Cl [Compound 482] | < 0.2 nM | 380 nM | 340 nM |  | 260 nM
25 | O=C[C@H](CC(=O)O)NC(=O)[C@@H]1CCCN2C(=O)CC[C@H](NC(=O)c3ccc(NC(=O)c4ccccc4)cc3)C(=O)N12 [Compound 483] | 1.7 nM | 700 nM | 900 nM |  | 
26 | CCC(=O)Nc1ccc(C(=O)N[C@H]2CCC(=O)N3CCC[C@@H](C(=O)N[C@H](C=O)CC(=O)O)N3C2=O)cc1 [Compound 485] | 2 nM | 900 nM | 900 nM |  | 
27 | CCCC(=O)Nc1ccc(C(=O)N[C@H]2CCC(=O)N3CCC[C@@H](C(=O)N[C@H](C=O)CC(=O)O)N3C2=O)cc1 [Compound 488] | 1.5 nM | 750 nM | 940 nM |  | 
28 | CNC(=O)Nc1ccc(C(=O)N[C@H]2CCC(=O)N3CCC[C@@H](C(=O)N[C@H](C=O)CC(=O)O)N3C2=O)cc1 [Compound 489] | 6 nM | 15000 nM | 2250 nM | 1700 nM | 
29 | COc1ccc(C(=O)N[C@H]2CCC(=O)N3CCC[C@@H](C(=O)N[C@H](C=O)CC(=O)O)N3C2=O)cc1F [Compound 493] | 25 nM | 800 nM | 1200 nM |  | 850 nM
30 | O=C[C@H](CC(=O)O)NC(=O)[C@@H]1CCCN2C(=O)CC[C@H](NC(=O)/C=C/c3ccccc3)C(=O)N12 [Compound 494] | 15 nM | 7000 nM | 1350 nM | 1500 nM | 
31 | O=C[C@H](CC(=O)O)NC(=O)[C@@H]1CCCN2C(=O)CC[C@H](NC(=O)OCc3ccccc3)C(=O)N12 [Compound 496] | 16 nM | 6000 nM | 1550 nM | 1600 nM | 

Source: patent US20120165319A1, “INHIBITORS OF INTERLEUKIN-1 BETA CONVERTING ENZYME” (VERTEX PHARMACEUTICALS INCORPORATED, priority 1995, published 2012)
